Test results: patent US5041567A, “Antibacterial monic acid derivatives” (Beecham Group plc, priority 1982, dated 1991)
In brackets after ≈: the same amount, converted by molar mass. Where two headings read alike, the source gives them in different places.

Tests used:
[1] = test system: M. suipneumoniae ATCC 25095; test: MIC against mycoplasma in vitro; type: cell-based; settings: Mesomycoplasma hyopneumoniae, ATCC25095, 144 h
[2] = test system: Sarcina lutea 8340; test: MIC against human bacteria in vitro; type: cell-based; settings: Micrococcus luteus; Sarcina lutea 8340; 5% chocolated horse blood agar, 18 hours; read-out: MIC
[3] = test system: Strep. suis (group D) SPS11; test: MIC against veterinary bacteria in vitro; settings: Streptococcus suis, 18 h
Procedure: (§1) The activity of the compounds of the Examples against various veterinarily important bacteria, was assayed in vitro using two-fold serial dilutions in Diagnostic Sensitivity Test Agar inoculated with 10^4 organisms.

[4] = test system: Strep. dysgalactiae SPD1; test: MIC against veterinary bacteria in vitro; settings: Streptococcus dysgalactiae, SPD1, 18 h
Procedure: as §1

[5] = test system: Bord. bronchiseptica B08; test: MIC against veterinary bacteria in vitro; settings: Bordetella bronchiseptica, B08, 18 h
Procedure: as §1

[6] = test system: P. mirabilis 889; test: MIC against human bacteria in vitro; type: cell-based; settings: Proteus mirabilis; P. mirabilis 889; 5% chocolated horse blood agar, 18 hours; read-out: MIC
[7] = test system: M. suipneumoniae PW/C/210; test: MIC against mycoplasma in vitro; type: cell-based; settings: Mesomycoplasma hyopneumoniae, 144 h
[8] = test system: E. coli NCTC 10418; test: MIC against human bacteria in vitro; type: cell-based; settings: Escherichia coli, NCTC10418; E. coli NCTC 10418; agar with 5% chocolated horse blood, 18 hours, 37° C.; read-out: MIC
[9] = test system: Bacillus subtilis 6633; test: MIC against human bacteria in vitro; type: cell-based; settings: Bacillus subtilis 6633; 5% chocolated horse blood agar, 18 hours; read-out: MIC
[10] = test system: M. suipneumoniae MS 16; test: MIC against mycoplasma in vitro; type: cell-based; settings: Mesomycoplasma hyopneumoniae, MS16, 144 h
[11] = test system: M. hyorhinis ATCC 25021; test: MIC against mycoplasma in vitro; type: cell-based; settings: Mesomycoplasma hyorhinis, ATCC25021, 144 h
[12] = test system: M. dispar NCTC 10125; test: MIC against mycoplasma in vitro; type: cell-based; settings: 144 h
[13] = test system: Bord. bronchiseptica B09; test: MIC against veterinary bacteria in vitro; settings: Bordetella bronchiseptica, B09, 18 h
Procedure: as §1

[14] = test system: S. dublin S7; test: MIC against veterinary bacteria in vitro; settings: Salmonella enterica, S7, 18 h
Procedure: as §1

[15] = test system: M. hyorhinis ATCC 23234; test: MIC against mycoplasma in vitro; type: cell-based; settings: Mesomycoplasma hyorhinis, ATCC23234, 144 h
[16] = test system: Strep. faecalis I; test: MIC against human bacteria in vitro; type: cell-based; settings: Enterococcus faecalis; Strep. faecalis I; 5% chocolated horse blood agar, 18 hours; read-out: MIC
[17] = test system: Past. multocida PA1; test: MIC against veterinary bacteria in vitro; settings: Pasteurella multocida, PA1, 18 h
Procedure: as §1

[18] = test system: E. coli ESS; test: MIC against human bacteria in vitro; type: cell-based; settings: Escherichia coli; E. coli ESS; 5% chocolated horse blood agar, 18 hours; read-out: MIC
[19] = test system: Past. multocida PA2; test: MIC against veterinary bacteria in vitro; settings: Pasteurella multocida, PA2, 18 h
Procedure: as §1

[20] = test system: M. suipneumoniae HK(2); test: MIC against mycoplasma in vitro; type: cell-based; settings: Mesomycoplasma hyopneumoniae, 144 h
[21] = test system: Strep. agalactiae 2788-B; test: MIC against human bacteria in vitro; type: cell-based; settings: Streptococcus agalactiae; Strep. agalactiae 2788-B; 5% chocolated horse blood agar, 18 hours; read-out: MIC
[22] = test system: Staph. aureus Russell; test: MIC against human bacteria in vitro; type: cell-based; settings: Staphylococcus aureus; Staph. aureus Russell; 5% chocolated horse blood agar, 18 hours; read-out: MIC
[23] = test system: K. aerogenes A; test: MIC against human bacteria in vitro; type: cell-based; settings: Klebsiella aerogenes; K. aerogenes A; 5% chocolated horse blood agar, 18 hours; read-out: MIC
[24] = test system: M. suipneumoniae TAM 6N; test: MIC against mycoplasma in vitro; type: cell-based; settings: Mesomycoplasma hyopneumoniae, TAM6N, 144 h
[25] = test system: M. suipneumoniae UCD 1; test: MIC against mycoplasma in vitro; type: cell-based; settings: Mesomycoplasma hyopneumoniae, UCD1, 144 h
[26] = test system: E. coli E1; test: MIC against veterinary bacteria in vitro; settings: Escherichia coli, E1, 18 h
Procedure: as §1

[27] = test system: Corynebacterium xerosis 9755; test: MIC against human bacteria in vitro; type: cell-based; settings: Corynebacterium xerosis 9755; 5% chocolated horse blood agar, 18 hours; read-out: MIC
[28] = test system: Staph. aureus B4 (pen. resistant); test: MIC against veterinary bacteria in vitro; settings: Staphylococcus aureus, 18 h
Procedure: as §1

[29] = test system: M. suipneumoniae LABER; test: MIC against mycoplasma in vitro; type: cell-based; settings: Mesomycoplasma hyopneumoniae, 144 h
[30] = test system: Strep. spp. 64/848-C; test: MIC against human bacteria in vitro; type: cell-based; settings: Strep. spp. 64/848-C; 5% chocolated horse blood agar, 18 hours; read-out: MIC
[31] = test system: Staph. aureus W2827; test: MIC against human bacteria in vitro; type: cell-based; settings: Staphylococcus aureus; Staph. aureus W2827; 5% chocolated horse blood agar, 18 hours; read-out: MIC
[32] = test system: Strep. agalactiae SPA1; test: MIC against veterinary bacteria in vitro; settings: Streptococcus agalactiae, SPA1, 18 h
Procedure: as §1

[33] = test system: Pasteurella multocida 1633; test: MIC against human bacteria in vitro; type: cell-based; settings: Pasteurella multocida 1633; 5% chocolated horse blood agar, 18 hours; read-out: MIC
[34] = test system: Staph. aureus Oxford; test: MIC against human bacteria in vitro; type: cell-based; settings: Staphylococcus aureus; Staph. aureus Oxford; 5% chocolated horse blood agar, 18 hours; read-out: MIC
[35] = M. suipneumoniae PW/C/210, 6 days, 37° C., read-out: MIC
[36] = M. suipneumoniae MS 16, 6 days, 37° C., read-out: MIC
[37] = M. hyorhinis ATCC 25021, 6 days, 37° C., read-out: MIC
[38] = M. suipneumoniae LABER, 6 days, 37° C., read-out: MIC

| SMILES | MIC [2] | MIC [3] | MIC [4] | MIC [5] | MIC [6] | MIC [8] | MIC [9] | MIC [13] | MIC [14] | MIC [16] | MIC [17] | MIC [18] | MIC [19] | MIC [21] | MIC [22] | MIC [23] | MIC [25] | MIC [26] | MIC [27] | MIC [28] | other results |
| --- | --- | --- | --- | --- | --- | --- | --- | --- | --- | --- | --- | --- | --- | --- | --- | --- | --- | --- | --- | --- | --- |
| C/C(=C\c1ncc(-c2ccsc2)o1)C[C@@H]1OC[C@H](C[C@@H]2O[C@H]2[C@@H](C)[C@H](C)O)[C@@H](O)[C@H]1O [Example 20, 5-(3-Thienyl)-2-(1-normon-2-yl) oxazole A] | > 128 µg/mL | 40 µg/mL (≈ 89 µM) | 0.625 µg/mL (≈ 1.39 µM) | 80 µg/mL (≈ 178 µM) | > 128 µg/mL | > 128 µg/mL | 0.5 µg/mL (≈ 1.11 µM) | 10 µg/mL (≈ 22.2 µM) | > 80 µg/mL | > 128 µg/mL | 2.5 µg/mL (≈ 5.56 µM) | 4 µg/mL (≈ 8.9 µM) | 0.312 µg/mL (≈ 0.694 µM) | 2 µg/mL (≈ 4.45 µM) | 4 µg/mL (≈ 8.9 µM) | > 128 µg/mL | 1 µg/mL (≈ 2.22 µM) | > 80 µg/mL | > 128 µg/mL | 0.63 µg/mL (≈ 1.4 µM) | MIC ([1]; M. suipneumoniae ATCC 25095, 6 days, 37° C., read-out: MIC): 0.5 µg/mL (≈ 1.11 µM); MIC [7, 35]: 0.5 µg/mL (≈ 1.11 µM); MIC [10, 36]: 0.5 µg/mL (≈ 1.11 µM); MIC [11, 37]: 0.5 µg/mL (≈ 1.11 µM); MIC [12]: 0.25 µg/mL (≈ 0.556 µM); MIC ([15]; M. hyorhinis ATCC 23234, 6 days, 37° C., read-out: MIC): 0.5 µg/mL (≈ 1.11 µM); MIC [20]: 1 µg/mL (≈ 2.22 µM); MIC [24]: 1 µg/mL (≈ 2.22 µM); MIC [29, 38]: 0.5 µg/mL (≈ 1.11 µM); MIC [30]: 2 µg/mL (≈ 4.45 µM); MIC [31]: 4 µg/mL (≈ 8.9 µM); MIC [32]: 1.25 µg/mL (≈ 2.78 µM); MIC [33]: 4 µg/mL (≈ 8.9 µM); MIC [34]: 4 µg/mL (≈ 8.9 µM) |
| C/C(=C\c1ncc(-c2ccc(C#N)cc2)o1)C[C@@H]1OC[C@H](C[C@@H]2O[C@H]2[C@@H](C)[C@H](C)O)[C@@H](O)[C@H]1O [Example 21, 5-p-Cyanophenyl-2-(1-normon-2-yl) oxazole A] | > 128 µg/mL | 10 µg/mL (≈ 21.3 µM) | 0.625 µg/mL (≈ 1.33 µM) | 40 µg/mL (≈ 85.4 µM) | > 128 µg/mL | > 128 µg/mL | 1 µg/mL (≈ 2.13 µM) | 10 µg/mL (≈ 21.3 µM) | > 80 µg/mL | > 128 µg/mL | 2.5 µg/mL (≈ 5.34 µM) | 4 µg/mL (≈ 8.54 µM) | 0.625 µg/mL (≈ 1.33 µM) | 4 µg/mL (≈ 8.54 µM) | 4 µg/mL (≈ 8.54 µM) | > 128 µg/mL | 0.25 µg/mL (≈ 0.534 µM) | > 80 µg/mL | > 128 µg/mL | 1.25 µg/mL (≈ 2.67 µM) | MIC [1]: 0.25 µg/mL (≈ 0.534 µM); MIC [7]: 0.25 µg/mL (≈ 0.534 µM); MIC [10]: 0.25 µg/mL (≈ 0.534 µM); MIC [11]: 0.25 µg/mL (≈ 0.534 µM); MIC [12]: 0.1 µg/mL (≈ 0.213 µM); MIC [15]: 0.25 µg/mL (≈ 0.534 µM); MIC ([20]; M. suipneumoniae HK(2), 6 days, 37° C., read-out: MIC): 0.5 µg/mL (≈ 1.07 µM); MIC ([24]; M. suipneumoniae TAM 6N, 6 days, 37° C., read-out: MIC): 0.5 µg/mL (≈ 1.07 µM); MIC [29]: 0.25 µg/mL (≈ 0.534 µM); MIC [30]: 4 µg/mL (≈ 8.54 µM); MIC [31]: 4 µg/mL (≈ 8.54 µM); MIC [32]: 1.25 µg/mL (≈ 2.67 µM); MIC [33]: 8 µg/mL (≈ 17.1 µM); MIC [34]: 4 µg/mL (≈ 8.54 µM) |
| CSc1cccc(-c2cnc(/C=C(\C)C[C@@H]3OC[C@H](C[C@@H]4O[C@H]4[C@@H](C)[C@H](C)O)[C@@H](O)[C@H]3O)o2)c1 [Example 22, 5-m-Methylthiophenyl-2-(1-normon-2-yl)oxazole A] | > 128 µg/mL | 20 µg/mL (≈ 40.8 µM) | 1.25 µg/mL (≈ 2.55 µM) | > 80 µg/mL | > 128 µg/mL | > 128 µg/mL | 4 µg/mL (≈ 8.17 µM) | 40 µg/mL (≈ 81.7 µM) | > 80 µg/mL | > 128 µg/mL | 20 µg/mL (≈ 40.8 µM) | 64 µg/mL (≈ 131 µM) | 10 µg/mL (≈ 20.4 µM) | 16 µg/mL (≈ 32.7 µM) | 16 µg/mL (≈ 32.7 µM) | > 128 µg/mL | 1 µg/mL (≈ 2.04 µM) | > 80 µg/mL | > 128 µg/mL | 1.25 µg/mL (≈ 2.55 µM) | MIC [1]: 1 µg/mL (≈ 2.04 µM); MIC [7, 35]: 0.5 µg/mL (≈ 1.02 µM); MIC [10, 36]: 0.5 µg/mL (≈ 1.02 µM); MIC [11, 37]: 0.5 µg/mL (≈ 1.02 µM); MIC ([12]; M. dispar NCTC 10125, 6 days, 37° C., read-out: MIC): 0.5 µg/mL (≈ 1.02 µM); MIC [15]: 1 µg/mL (≈ 2.04 µM); MIC [20]: 1 µg/mL (≈ 2.04 µM); MIC [24]: 1 µg/mL (≈ 2.04 µM); MIC [29, 38]: 0.5 µg/mL (≈ 1.02 µM); MIC [30]: 16 µg/mL (≈ 32.7 µM); MIC [31]: 16 µg/mL (≈ 32.7 µM); MIC [32]: 10 µg/mL (≈ 20.4 µM); MIC [33]: 32 µg/mL (≈ 65.4 µM); MIC [34]: 4 µg/mL (≈ 8.17 µM) |
